For experiment [1], the system named is acetic acid-induced writhes (abdominal constriction). In words: Writhing test (0.6% acetic acid). The experiment is classed as in vivo, ICR mice. The conditions noted are these: mouse, oral, 0.5 h; read-out: Writ htest: ED50. As for the experimental part: To examine the pain relief effect of the sulfamate derivative compounds, a writhing test was conducted in general pain animal model referring to Fischer, L. G. et al. (2008).
ICR mice (male, 24-28 g; Orient Bio, Korea) were habituated before test in test room for 1 hour. Animals were fasted 2 hr, before administration of compounds. Compounds was orally administered at the close of 20 mg/kg, 10 ul/g, bw (n=3˜5/group). All compounds were dissolved in a vehicle of 30% (v/v) PEG 400 or 20% (v/v) Tween 80. The control group was treated the vehicle without compounds.
[…] Animals were habituated in the cage for 5 min. 5 min after habituation, the number of writhes (abdominal constriction) for 15 min was counted referring to Korzeniewska-Rybicka, I. et al. (1998) and compared with that of a control.
(In general: In writhing tests, fewer writhes than in controls are read as antinociception.)

A further experiment deals with STZ-induced pain model. The experiment in a line: Antiallodynic activity on streptozotocin (STZ)-induced diabetic pain model (von Frey). In kind it is in vivo, Sprague-Dawley rats. The conditions noted are these: ip, rat, intraperitoneal, 0.5 h. As for the experimental part:
Male, Sprague-Dawley rats (200-220 g, Nara Bio, Korea) were habituated for 1 week before surgery and allowed free access to food and water throughout the experimentation. Room temperature and humidity were maintained at 24±2° C. and 50±10%, respectively.
STZ-induced diabetic pain model was established with a modified method of Rakieten et al. (1963) and Bertrand Aubel et al. (2004). All animals were fasted 4 to 6 hr prior to STZ injection. STZ (sigma, USA) was dissolved in 20 mM sodium citrate buffer, pH 5.5 (sigma, USA) and intraperitoneally injected at 75 mg/kg, 4 ul/g, bw into the rats. […]
(§1) Tactile sensitivity (Mechanical allodynia) was evaluated using von Frey monofilaments before and after treatment of the compound of Examples and animals were used withdrawal threshold value was less than 4 g. […] The tactile sensitivity for ipsilateral hind paw was measured using the up-and-down method (Dixon, 1980) with seven von Frey monofilaments (0.4, 1, 2, 4, 6, 8, and 15 g) to 3 trials. […] The 50% paw withdrawal threshold for each paw was calculated using the following formula: [Xth] log=[vFr] log+ky where [vFr] is the force of the last von Frey used k=0.2249 which is the average interval (in log units) between the von Frey monofilaments, and y is a value that depends upon the pattern of withdrawal responses (Dixon, 1980). […]

The subject of experiment [2] is hot plate withdrawal latency. In words: Hot-plate test. The experiment is classed as in vivo, ICR mice. The conditions noted are these: 200 mg/kg, mouse, oral. As for the experimental part:
To examine the pain relief effect of the sulfamate derivative compounds, a hot-plate test was conducted in general pain animal model referring to Current Protocols in Neuroscience; Behavioral Neuroscience Unit 8.9.
ICR mice (male, 30-35 g: Orient Bio, Korea) were habituated before test in test room for 1 hour. Animals were fasted 2 hr before administration of compounds. […] All compounds were dissolved in a vehicle of 30% (v/v) PEG 400 or 20% (v/v) Tween 80. The control group was treated the vehicle without compounds.
[…] (Hu, X. et al, 2008), and then, measured as the withdrawal latency (cut-off time: 30 sec) time until the point when each mouse was taking off a paw from the plate, shaking, licking a paw or hind leg, or jumping from the plate.
(In general: Thermal pain tests record how soon the animal reacts.)

Experiment [3] relates to Vincristine-induced pain model. In words: Antiallodynic activity on vincristine-induced pain model (von Frey). The experiment is classed as in vivo, Sprague-Dawley rats. The settings on record: ip, rat, intraperitoneal, 0.5 h. As for the experimental part: Male, Sprague-Dawley rats (300-320 g, Nara Bio, Korea) were habituated for 1 week before surgery and allowed free access to food and water throughout the experimentation. Room temperature and humidity were maintained at 24±2° C. and 50±10%, respectively.
Vincristine was established by the procedure of Natsuko et al. (2001) with minor modifications. Vincristine was intravenously infused continuously for 14 clays using a mini-osmotic pump as follows. Vincristine sulfate solution (Hospira, Australia) was diluted with 0.9% saline to 30 ug/kg, final close. The pumps (Alzet Model 2002, USA) were filled with the vincristine solution and primed by incubation at 37° C. for 4 h before the infusion. […]
as §1, with “after treatment,” for “after treatment of the compound of Examples”, “Frey used,” for “Frey used”

Data on one molecule can be found in patent US9834535B2, “Sulfamate derivative compounds for use in treating or alleviating pain” (Bio-Pharm Solutions Co., Ltd., priority 2013, dated 2017).

In general, ED50 refers to the dose at which the effect has come halfway, by size or by number of responders.

Consider `CC1(C)O[C@@H](COS(N)(=O)=O)[C@H](c2ccccc2Cl)O1` [Example 2, ((4S,5S)-5-(2-chlorophenyl)-2,2-dimethyl-1,3-dioxolan-4-yl)methyl sulfamate], for which the ED50 in experiment [1] worked out at 28.4 mg/kg; with STZ-induced pain model it was 7.9 mg/kg; in experiment [3] it was 1 mg/kg. For the same molecule, the “Hot plate test: effect (%) at the concentration administered” value in experiment [2] is reported as “^#200 (123.6%)”.
